Assay results taken from ChEMBL document CHEMBL1212787, “Antimicrobial peptide hLF1-11 directs granulocyte-macrophage colony-stimulating factor-driven monocyte differentiation toward macrophages with enhanced recognition and clearance of pathogens” (2010).
Active and inactive are the calls of the source. The calls are words filed in the database; no cut-off is given here.

Columns and labels:
[1] = system: Candida albicans; experiment: Antimicrobial activity against Candida albicans infected in human macrophage assessed as fungal clearance at 60 mins by FACS analysis (reference value: 56%); type: functional, organism-based
[2] = system: Candida albicans; experiment: Antimicrobial activity against Candida albicans infected in human macrophage assessed as fungus phagocytosing compound-treated macrophages at 30 mins by FACS analysis (reference value: 28%); type: functional
[3] = system: Staphylococcus aureus; experiment: Antimicrobial activity against Staphylococcus aureus LUH2141 infected in human macrophage assessed as bacteria phagocytosing macrophages at 60 mins by FACS analysis (reference value: 30%); type: functional
[4] = system: Macrophage; experiment: Modulation of GM-CSF-driven human macrophage differentiation assessed as induction of 1 ng/ml LTA-stimulatedMCP1 production at 100 ug/ml after 20 hrs; type: functional, cell-based
[5] = system: Monocyte; experiment: Modulation of GM-CSF-driven human monocytes differentiation assessed as induction of LPS-induced IL-10 production after 60 mins; type: functional, cell-based
[6] = system: Macrophage; experiment: Modulation of GM-CSF-driven human macrophage differentiation assessed as induction of heat killed Candida albicans-stimulated IL-12p40 production in at 10 ug/ml after 20 hrs; type: functional, cell-based
[7] = system: Candida albicans; experiment: Antimicrobial activity against Candida albicans infected in human macrophage assessed as fungus phagocytosing compound-treated macrophages at 60 mins by FACS analysis (reference value: 47%); type: functional
[8] = system: Macrophage; experiment: Modulation of GM-CSF-driven human macrophage differentiation assessed as induction of heat killed Candida albicans-stimulated TNFalpha production in at 1 to 100 ug/ml after 20 hrs; type: functional, cell-based
[9] = system: Staphylococcus aureus; experiment: Antimicrobial activity against Staphylococcus aureus LUH2141 infected in human macrophage assessed as bacteria phagocytosing macrophages at 120 mins by FACS analysis (reference value: 66%); type: functional
[10] = Modulation of GM-CSF-driven human macrophage differentiation assessed as induction of TLR2 expression in at 100 ug/ml after 7 days by flow cytometry; type: functional, cell-based
[11] = system: Macrophage; experiment: Modulation of GM-CSF-driven human macrophage differentiation assessed as induction of CD206 expression at 100 ug/ml after 7 days by flow cytometry; type: functional, cell-based
[12] = system: Monocyte; experiment: Modulation of GM-CSF-driven human monocytes differentiation assessed as induction of LPS-induced IL-10 production after 10 mins; type: functional, cell-based
[13] = system: Macrophage; experiment: Modulation of GM-CSF-driven human macrophage differentiation assessed as induction of 1x10^6 CFU heat-killed Candida albicans cells-stimulated TNF-alpha production at 100 ug/ml after 20 hrs; type: functional, cell-based
[14] = system: Macrophage; experiment: Modulation of GM-CSF-driven human macrophage differentiation assessed as induction of LTA-stimulated TNFalpha production in at 1 to 100 ug/ml after 20 hrs; type: functional, cell-based
[15] = system: Candida albicans; experiment: Antimicrobial activity against Candida albicans infected in human macrophage assessed as induction of phagocytosis of fungus after 10 mins by flow cytometry; type: functional, organism-based
[16] = system: Macrophage; experiment: Modulation of GM-CSF-driven human macrophage differentiation assessed as induction of LTA-stimulated IL-10 production in at 1 to 100 ug/ml after 20 hrs; type: functional, cell-based
[17] = system: Macrophage; experiment: Modulation of GM-CSF-driven human macrophage differentiation assessed as induction of 10 ng/ml LTA-stimulatedMCP1 production at 100 ug/ml after 20 hrs; type: functional, cell-based
[18] = system: Macrophage; experiment: Modulation of GM-CSF-driven human macrophage differentiation assessed as induction of LTA-stimulated IL-12p40 production in at 1 to 100 ug/ml after 20 hrs; type: functional, cell-based
[19] = system: Macrophage; experiment: Modulation of GM-CSF-driven human macrophage differentiation assessed as induction of CD14 expression in at 100 ug/ml after 7 days by flow cytometry; type: functional, cell-based
[20] = system: Macrophage; experiment: Modulation of GM-CSF-driven human macrophage differentiation assessed as induction of CD11b expression at 100 ug/ml after 7 days by flow cytometry; type: functional, cell-based
[21] = system: Macrophage; experiment: Modulation of GM-CSF-driven human macrophage differentiation assessed as induction of 0.1 ng/ml LPS-stimulatedIL-10 production at 100 ug/ml after 20 hrs; type: functional, cell-based
[22] = system: Staphylococcus aureus; experiment: Antimicrobial activity against Staphylococcus aureus LUH2141 infected in human macrophage at 60 mins by FACS analysis (reference value: 9%); type: functional, organism-based
[23] = system: Macrophage; experiment: Modulation of GM-CSF-driven human macrophage differentiation assessed as induction of heat killed Candida albicans-stimulated IL-10 production in at 1 to 100 ug/ml after 20 hrs; type: functional, cell-based
[24] = system: Candida albicans; experiment: Antimicrobial activity against Candida albicans infected in human macrophage assessed as induction of phagocytosis of fungus after 60 mins by flow cytometry; type: functional, organism-based
[25] = system: Macrophage; experiment: Modulation of GM-CSF-driven human macrophage differentiation assessed as induction of LPS-stimulated IL-12p40 production in at 1 to 100 ug/ml after 20 hrs; type: functional, cell-based
[26] = system: Monocyte; experiment: Modulation of GM-CSF-driven human monocytes differentiation assessed as induction of LPS-induced IL-10 production after 7 days; type: functional, cell-based
[27] = Modulation of GM-CSF-driven human macrophage differentiation assessed as induction of dectin-1 expression at 100 ug/ml after 7 days by flow cytometry; type: functional, cell-based
[28] = system: Macrophage; experiment: Modulation of GM-CSF-driven human macrophage differentiation assessed as induction of LPS-stimulated TNFalpha production in at 1 to 100 ug/ml after 20 hrs; type: functional, cell-based
[29] = system: Candida albicans; experiment: Antimicrobial activity against Candida albicans infected in human macrophage assessed as fungus phagocytosing compound-treated macrophages at 15 mins by FACS analysis (reference value: 13%); type: functional
[30] = Modulation of GM-CSF-driven human macrophage differentiation assessed as induction of TLR4 expression in at 100 ug/ml after 7 days by flow cytometry; type: functional, cell-based
[31] = system: Macrophage; experiment: Modulation of GM-CSF-driven human macrophage differentiation assessed as induction of LPS-stimulated IL-10 production in at 1 to 100 ug/ml after 20 hrs; type: functional, cell-based
[32] = system: Staphylococcus aureus; experiment: Antimicrobial activity against Staphylococcus aureus LUH2141 infected in human macrophage at 120 mins by FACS analysis (reference value: 17%); type: functional, organism-based

For H-GRRRRSVQWCA-OH, the Activity [1] was “Active”, the Activity [2] was 41% and the Activity [3] was 49%. For the same substance, the Activity [4] was “Active”, the Activity [5] was “Active” and the Activity [6] was “Active”. The Activity [7] was 54%, the Activity [8] was “Active” and the Activity [9] was 72%. For the same substance, the Activity [10] was “inactive”, the Activity [11] was “Active” and the Activity [12] was “inactive”. For the same substance, the Activity [13] was “Active”, the Activity [14] was “inactive” and the Activity [15] was “inactive”. The Activity [16] was “Active”, the Activity [17] was “Active” and the Activity [18] was “Active”. The Activity [19] was “Active”, the Activity [20] was “inactive” and the Activity [21] was “Active”. For the same substance, the Activity [22] was “Active”, the Activity [23] was “Active” and the Activity [24] was “Active”. The Activity [25] was “inactive”, the Activity [26] was “Active” and the Activity [27] was “Active”. The Activity [28] was “inactive”, the Activity [29] was 22% and the Activity [30] was “Active”. For the same substance, the Activity [31] was “Active” and the Activity [32] was “Active”.
